Experimental data as given in patent US10710978B2, “STK4 inhibitors for treatment of hematologic malignancies” (Dana-Farber Cancer Institute, Inc., priority 2015, dated 2020).
“And” between values parts separate entries of the source, which are not always exact repeats. Equal values may be shown once. Read-outs that look alike come from different tables or passages of the source.

How the values were obtained:
Test in all cases: KiNativ assay
Assay type in all cases: binding
Conditions in all cases: H929 live cell
SMG1 = SMG1 (Homo sapiens (Human), UniProt Q96Q15)
Procedure: (§1) Biochemical IC50s of the compounds of the present disclosure against various kinases were measured in a KiNativ assay. Compounds were screened in duplicate at 10 μM in H929 live cell. IC50 was measured via Mass spectroscopy (MS).

PFTAIRE1 = PFTAIRE1 (Homo sapiens (Human), UniProt O94921)
Procedure: as §1

NuaK1 = NuaK1 (Homo sapiens (Human), UniProt O60285)
Sequence of NuaK1 (O60285 whole entry): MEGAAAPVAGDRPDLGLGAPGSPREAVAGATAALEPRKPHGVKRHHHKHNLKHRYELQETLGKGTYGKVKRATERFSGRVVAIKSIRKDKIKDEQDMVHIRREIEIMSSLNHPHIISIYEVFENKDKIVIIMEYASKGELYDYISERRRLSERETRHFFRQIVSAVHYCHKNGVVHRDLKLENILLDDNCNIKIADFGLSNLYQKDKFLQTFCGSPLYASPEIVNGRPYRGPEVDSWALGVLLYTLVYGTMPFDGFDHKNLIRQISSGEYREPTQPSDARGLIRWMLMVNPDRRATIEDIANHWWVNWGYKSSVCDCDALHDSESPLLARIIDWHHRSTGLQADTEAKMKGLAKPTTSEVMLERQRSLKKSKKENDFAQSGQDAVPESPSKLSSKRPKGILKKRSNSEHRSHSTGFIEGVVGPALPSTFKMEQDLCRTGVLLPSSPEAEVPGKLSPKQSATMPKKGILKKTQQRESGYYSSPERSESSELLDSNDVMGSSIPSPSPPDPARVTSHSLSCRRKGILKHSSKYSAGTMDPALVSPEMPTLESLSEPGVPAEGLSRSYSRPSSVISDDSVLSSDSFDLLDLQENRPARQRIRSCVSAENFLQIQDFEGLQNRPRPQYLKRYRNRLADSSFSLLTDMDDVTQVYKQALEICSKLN
Procedure: as §1

PIK3CG = PIK3CG (Homo sapiens (Human), UniProt P48736)
Procedure: as §1

PRP4 = PRP4 (Homo sapiens (Human), UniProt Q13523)
Procedure: as §1

MAP3K2 = MAP3K2 (Homo sapiens (Human), UniProt Q9Y2U5)
Procedure: as §1

TAO1, TAO3 = system: TAO1, TAO3
Procedure: as §1

PI4KA, PI4KAP2 = system: PI4KA, PI4KAP2
Procedure: as §1

MARK2 = MARK2 (Homo sapiens (Human), UniProt Q7KZI7)
Procedure: as §1

Wnk1, Wnk2, Wnk3 = system: Wnk1, Wnk2, Wnk3
Procedure: as §1

MPSK1 = MPSK1 (Homo sapiens (Human), UniProt O75716)
Sequence of MPSK1 (O75716 whole entry): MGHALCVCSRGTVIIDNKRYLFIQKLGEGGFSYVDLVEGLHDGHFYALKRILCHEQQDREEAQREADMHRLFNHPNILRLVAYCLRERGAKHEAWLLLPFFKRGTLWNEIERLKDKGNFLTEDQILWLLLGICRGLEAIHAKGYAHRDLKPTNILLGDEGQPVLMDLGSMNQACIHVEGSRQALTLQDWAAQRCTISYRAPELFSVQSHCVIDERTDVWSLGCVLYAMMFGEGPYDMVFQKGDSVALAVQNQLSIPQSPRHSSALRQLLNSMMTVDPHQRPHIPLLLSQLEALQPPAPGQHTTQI
Procedure: as §1

CSK = CSK (Homo sapiens (Human), UniProt P41240)
Procedure: as §1

ILK = ILK (Homo sapiens (Human), UniProt Q13418)
Sequence of ILK (Q13418 whole entry): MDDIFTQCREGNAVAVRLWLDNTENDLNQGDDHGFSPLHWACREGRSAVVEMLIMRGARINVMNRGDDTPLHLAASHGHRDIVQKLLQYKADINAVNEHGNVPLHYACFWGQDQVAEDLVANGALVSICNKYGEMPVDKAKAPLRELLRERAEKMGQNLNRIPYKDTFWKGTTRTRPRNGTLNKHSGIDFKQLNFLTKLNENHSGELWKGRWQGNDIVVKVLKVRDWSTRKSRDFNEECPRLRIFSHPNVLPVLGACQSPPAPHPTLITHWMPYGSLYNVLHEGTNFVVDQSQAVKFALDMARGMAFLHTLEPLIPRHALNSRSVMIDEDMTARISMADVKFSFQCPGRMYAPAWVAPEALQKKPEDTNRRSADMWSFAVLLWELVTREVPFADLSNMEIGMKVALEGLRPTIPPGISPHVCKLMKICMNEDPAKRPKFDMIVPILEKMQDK
Procedure: as §1

ABL, ARG = system: ABL, ARG
Procedure: as §1

NDR1 = NDR1 (Homo sapiens (Human), UniProt Q15208)
Procedure: as §1

PKD2 = PKD2 (Homo sapiens (Human), UniProt Q9BZL6)
Sequence of PKD2 (Q9BZL6 whole entry): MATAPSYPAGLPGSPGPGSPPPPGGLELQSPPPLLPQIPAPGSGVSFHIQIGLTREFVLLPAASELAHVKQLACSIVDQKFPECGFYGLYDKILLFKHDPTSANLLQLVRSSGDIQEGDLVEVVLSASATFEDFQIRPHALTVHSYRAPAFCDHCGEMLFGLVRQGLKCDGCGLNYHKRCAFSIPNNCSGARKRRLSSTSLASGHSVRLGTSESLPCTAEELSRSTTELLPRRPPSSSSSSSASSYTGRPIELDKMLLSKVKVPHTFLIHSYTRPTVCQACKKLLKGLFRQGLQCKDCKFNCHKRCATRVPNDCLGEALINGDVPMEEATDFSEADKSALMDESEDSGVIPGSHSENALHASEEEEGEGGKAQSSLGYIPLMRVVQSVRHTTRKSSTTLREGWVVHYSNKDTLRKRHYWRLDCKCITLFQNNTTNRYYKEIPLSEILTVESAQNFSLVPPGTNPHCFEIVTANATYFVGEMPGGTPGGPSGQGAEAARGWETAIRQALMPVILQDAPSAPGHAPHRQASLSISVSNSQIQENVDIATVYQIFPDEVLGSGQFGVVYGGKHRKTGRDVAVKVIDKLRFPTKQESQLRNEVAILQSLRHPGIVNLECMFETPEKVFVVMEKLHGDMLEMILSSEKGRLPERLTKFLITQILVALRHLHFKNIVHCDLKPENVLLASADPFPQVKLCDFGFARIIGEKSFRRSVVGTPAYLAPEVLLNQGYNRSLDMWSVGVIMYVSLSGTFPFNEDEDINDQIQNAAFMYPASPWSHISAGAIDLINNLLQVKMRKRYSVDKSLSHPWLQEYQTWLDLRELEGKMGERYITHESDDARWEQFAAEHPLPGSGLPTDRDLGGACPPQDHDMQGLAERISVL
Procedure: as §1

SLK = SLK (Homo sapiens (Human), UniProt Q9H2G2)
Procedure: as §1

MLKL = MLKL (Homo sapiens (Human), UniProt Q8NB16)
Procedure: as §1

MST3 = MST3 (Homo sapiens (Human), UniProt Q9Y6E0)
Procedure: as §1

MST1 = MST1 (Homo sapiens (Human), UniProt Q13043)
Procedure: as §1

EphB2 = EphB2 (Homo sapiens (Human), UniProt P29323)
Procedure: as §1

ULK1 = ULK1 (Homo sapiens (Human), UniProt O75385)
Procedure: as §1

MAP3K1 = MAP3K1 (Homo sapiens (Human), UniProt Q13233)
Procedure: as §1

IKKe, TBK1 = system: IKKe, TBK1
Procedure: as §1

CDK7 = CDK7 (Homo sapiens (Human), UniProt P50613)
Procedure: as §1

BRAF = BRAF (Homo sapiens (Human), UniProt P15056)
Sequence of BRAF (P15056 whole entry): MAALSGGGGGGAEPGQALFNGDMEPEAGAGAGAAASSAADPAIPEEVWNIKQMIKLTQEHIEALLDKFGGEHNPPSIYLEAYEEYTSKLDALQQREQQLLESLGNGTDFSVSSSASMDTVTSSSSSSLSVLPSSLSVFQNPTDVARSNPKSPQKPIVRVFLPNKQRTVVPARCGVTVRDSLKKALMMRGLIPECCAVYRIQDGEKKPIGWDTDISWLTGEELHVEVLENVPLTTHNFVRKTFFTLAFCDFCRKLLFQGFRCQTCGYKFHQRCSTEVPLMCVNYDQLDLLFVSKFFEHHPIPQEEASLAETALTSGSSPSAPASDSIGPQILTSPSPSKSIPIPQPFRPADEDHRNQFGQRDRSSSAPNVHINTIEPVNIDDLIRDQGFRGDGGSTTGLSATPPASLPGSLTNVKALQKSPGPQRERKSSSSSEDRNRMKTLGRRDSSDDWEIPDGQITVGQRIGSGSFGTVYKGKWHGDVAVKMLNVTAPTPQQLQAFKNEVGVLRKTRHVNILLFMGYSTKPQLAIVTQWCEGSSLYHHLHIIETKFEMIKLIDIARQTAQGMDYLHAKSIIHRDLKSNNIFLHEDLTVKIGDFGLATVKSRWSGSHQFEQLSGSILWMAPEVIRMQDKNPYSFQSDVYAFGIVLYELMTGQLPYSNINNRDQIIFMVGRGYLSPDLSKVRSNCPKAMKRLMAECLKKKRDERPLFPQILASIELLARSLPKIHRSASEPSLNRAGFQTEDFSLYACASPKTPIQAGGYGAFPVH
Procedure: as §1

GSK3A = GSK3A (Homo sapiens (Human), UniProt P49840)
Procedure: as §1

SNRK = SNRK (Homo sapiens (Human), UniProt Q9NRH2)
Sequence of SNRK (Q9NRH2 whole entry): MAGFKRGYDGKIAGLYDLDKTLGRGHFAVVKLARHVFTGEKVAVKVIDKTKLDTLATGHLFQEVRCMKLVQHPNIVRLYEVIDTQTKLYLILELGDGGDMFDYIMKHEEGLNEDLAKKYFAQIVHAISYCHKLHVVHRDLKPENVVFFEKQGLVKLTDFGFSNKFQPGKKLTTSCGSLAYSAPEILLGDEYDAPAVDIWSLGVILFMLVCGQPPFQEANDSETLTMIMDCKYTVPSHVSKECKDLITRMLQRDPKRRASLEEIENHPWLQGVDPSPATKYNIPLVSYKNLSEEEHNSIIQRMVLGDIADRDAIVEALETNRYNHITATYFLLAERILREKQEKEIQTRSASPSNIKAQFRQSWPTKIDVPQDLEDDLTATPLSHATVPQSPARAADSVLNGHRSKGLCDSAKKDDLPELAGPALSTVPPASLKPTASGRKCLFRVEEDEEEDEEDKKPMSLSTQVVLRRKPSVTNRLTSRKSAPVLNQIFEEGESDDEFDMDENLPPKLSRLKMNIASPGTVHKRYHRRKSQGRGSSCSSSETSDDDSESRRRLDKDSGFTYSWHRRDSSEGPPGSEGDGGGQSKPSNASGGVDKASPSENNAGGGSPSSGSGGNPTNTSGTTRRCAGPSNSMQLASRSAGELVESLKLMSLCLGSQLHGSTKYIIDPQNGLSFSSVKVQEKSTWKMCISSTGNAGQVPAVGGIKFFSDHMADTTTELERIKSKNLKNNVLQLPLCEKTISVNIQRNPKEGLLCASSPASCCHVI
Procedure: as §1

SRPK1 = SRPK1 (Homo sapiens (Human), UniProt Q96SB4)
Procedure: as §1

LATS1 = LATS1 (Homo sapiens (Human), UniProt O95835)
Procedure: as §1

MAP2K5 = MAP2K5 (Homo sapiens (Human), UniProt Q13163)
Procedure: as §1

ZAK = ZAK (Homo sapiens (Human), UniProt Q9NYL2)
Sequence of ZAK (Q9NYL2 whole entry): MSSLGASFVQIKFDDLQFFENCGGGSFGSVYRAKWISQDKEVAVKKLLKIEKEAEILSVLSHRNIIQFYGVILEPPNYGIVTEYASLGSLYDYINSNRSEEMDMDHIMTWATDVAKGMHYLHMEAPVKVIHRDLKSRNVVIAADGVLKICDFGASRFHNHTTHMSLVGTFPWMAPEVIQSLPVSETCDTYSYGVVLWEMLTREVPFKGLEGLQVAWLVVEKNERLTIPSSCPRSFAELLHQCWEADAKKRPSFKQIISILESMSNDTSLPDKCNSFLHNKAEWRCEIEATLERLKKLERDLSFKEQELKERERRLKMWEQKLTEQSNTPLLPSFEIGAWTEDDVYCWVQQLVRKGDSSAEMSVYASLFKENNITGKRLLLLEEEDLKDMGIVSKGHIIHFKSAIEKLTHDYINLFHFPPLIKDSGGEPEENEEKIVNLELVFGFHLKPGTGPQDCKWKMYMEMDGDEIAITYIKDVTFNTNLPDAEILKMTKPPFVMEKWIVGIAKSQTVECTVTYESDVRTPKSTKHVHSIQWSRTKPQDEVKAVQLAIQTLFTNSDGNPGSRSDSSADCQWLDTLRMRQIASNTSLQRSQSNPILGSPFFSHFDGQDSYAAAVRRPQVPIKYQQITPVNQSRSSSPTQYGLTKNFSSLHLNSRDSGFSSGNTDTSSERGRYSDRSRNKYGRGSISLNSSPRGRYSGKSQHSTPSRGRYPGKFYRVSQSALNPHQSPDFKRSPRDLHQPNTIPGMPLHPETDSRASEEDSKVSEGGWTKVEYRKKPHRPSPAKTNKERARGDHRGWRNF
Procedure: as §1

MAP2K7 = MAP2K7 (Homo sapiens (Human), UniProt O14733)
Sequence of MAP2K7 (O14733 whole entry): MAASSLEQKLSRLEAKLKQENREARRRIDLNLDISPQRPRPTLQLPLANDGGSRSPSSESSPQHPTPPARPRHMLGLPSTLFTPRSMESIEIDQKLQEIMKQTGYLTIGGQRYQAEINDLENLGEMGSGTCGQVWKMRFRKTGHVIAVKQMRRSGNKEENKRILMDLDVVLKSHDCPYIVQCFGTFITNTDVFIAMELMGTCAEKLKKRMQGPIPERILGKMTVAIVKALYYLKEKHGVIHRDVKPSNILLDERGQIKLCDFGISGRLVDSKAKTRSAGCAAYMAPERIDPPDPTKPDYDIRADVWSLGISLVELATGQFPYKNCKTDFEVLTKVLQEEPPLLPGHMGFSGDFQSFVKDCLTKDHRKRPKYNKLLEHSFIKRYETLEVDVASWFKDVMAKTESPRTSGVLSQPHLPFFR
Procedure: as §1

MARK1, MARK2 = system: MARK1, MARK2
Procedure: as §1

Nc1ncc(-c2cccc3ncsc23)cc1-c1ccc2c(c1)CCNC2=O [Compound I-13, 6-(2-amino-5-(benzo[d]thiazol-7-yl)pyridin-3-yl)-3,4-dihydroisoquinolin-1(2H)-one]
inhibition at 10 µM (SMG1; read-out: % inhibition (range)): 50 to 75%
inhibition at 10 µM (SMG1; read-out: inhibition (10 μM)): 61%
inhibition at 10 µM (PFTAIRE1; read-out: % inhibition (range)): 35 to 50%
inhibition at 10 µM (PFTAIRE1; read-out: inhibition (10 μM)): 49.2%
% inhibition (range) (NuaK1; 10 μM): 50-75% and 75-90%
inhibition (10 μM) (NuaK1): 83.7%
inhibition at 10 µM (NuaK1; read-out: inhibition (10 μM)): 71.7%
inhibition at 10 µM (PIK3CG; read-out: % inhibition (range)): 0%
inhibition at 10 µM (PIK3CG; read-out: inhibition (10 μM)): 12.4%
inhibition at 10 µM (PRP4; read-out: % inhibition (range)): 50 to 75%
inhibition at 10 µM (PRP4; read-out: inhibition (10 μM)): 73.4%
inhibition at 10 µM (MAP3K2; read-out: % inhibition (range)): 0%
inhibition at 10 µM (MAP3K2; read-out: inhibition (10 μM)): -23.5%
% inhibition (range) (TAO1, TAO3; 10 μM): 0.0%
inhibition (10 μM) (TAO1, TAO3): 10.3%
% inhibition (range) (PI4KA, PI4KAP2; 10 μM): 0.0%
inhibition (10 μM) (PI4KA, PI4KAP2): −16.1%
inhibition at 10 µM (MARK2; read-out: % inhibition (range)): 0%
inhibition at 10 µM (MARK2; read-out: inhibition (10 μM)): 32.3%
% inhibition (range) (Wnk1, Wnk2, Wnk3; 10 μM): 0.0%
inhibition (10 μM) (Wnk1, Wnk2, Wnk3): −69.3%
inhibition at 10 µM (MPSK1; read-out: % inhibition (range)): 0%
inhibition at 10 µM (MPSK1; read-out: inhibition (10 μM)): -28.8%
inhibition at 10 µM (CSK; read-out: % inhibition (range)): 0%
inhibition at 10 µM (CSK; read-out: inhibition (10 μM)): 4.7%
inhibition at 10 µM (ILK; read-out: % inhibition (range)): 0%
inhibition at 10 µM (ILK; read-out: inhibition (10 μM)): 1.6%
% inhibition (range) (ABL, ARG; 10 μM): 50-75%
inhibition (10 μM) (ABL, ARG): 53.5%
inhibition at 10 µM (NDR1; read-out: % inhibition (range)): 0%
inhibition at 10 µM (NDR1; read-out: inhibition (10 μM)): 13%
inhibition at 10 µM (PKD2; read-out: % inhibition (range)): 50 to 75%
inhibition at 10 µM (PKD2; read-out: inhibition (10 μM)): 52.1%
inhibition at 10 µM (SLK; read-out: % inhibition (range)): 35 to 50%
inhibition at 10 µM (SLK; read-out: inhibition (10 μM)): 49.2%
inhibition at 10 µM (MLKL; read-out: % inhibition (range)): 0%
inhibition at 10 µM (MLKL; read-out: inhibition (10 μM)): 15.2%
inhibition at 10 µM (MST3; read-out: % inhibition (range)): 0%
inhibition at 10 µM (MST3; read-out: inhibition (10 μM)): -1.8%
inhibition at 10 µM (MST1; read-out: % inhibition (range)): 75 to 90%
inhibition at 10 µM (MST1; read-out: inhibition (10 μM)): 89%
inhibition at 10 µM (EphB2; read-out: % inhibition (range)): 0%
inhibition at 10 µM (EphB2; read-out: inhibition (10 μM)): 22.1%
inhibition at 10 µM (ULK1; read-out: % inhibition (range)): 0%
inhibition at 10 µM (ULK1; read-out: inhibition (10 μM)): -23.4%
inhibition at 10 µM (MAP3K1; read-out: % inhibition (range)): > 90%
inhibition at 10 µM (MAP3K1; read-out: inhibition (10 μM)): 90.2%
% inhibition (range) (IKKe, TBK1; 10 μM): 0.0%
inhibition (10 μM) (IKKe, TBK1): −9.9%
inhibition at 10 µM (CDK7; read-out: % inhibition (range)): 0%
inhibition at 10 µM (CDK7; read-out: inhibition (10 μM)): 32.9%
inhibition at 10 µM (BRAF; read-out: % inhibition (range)): 0%
inhibition at 10 µM (BRAF; read-out: inhibition (10 μM)): 10.2%
inhibition at 10 µM (GSK3A; read-out: % inhibition (range)): > 90%
inhibition at 10 µM (GSK3A; read-out: inhibition (10 μM)): 91.6%
inhibition at 10 µM (SNRK; read-out: % inhibition (range)): 0%
inhibition at 10 µM (SNRK; read-out: inhibition (10 μM)): 6.2%
inhibition at 10 µM (SRPK1; read-out: % inhibition (range)): 0%
inhibition at 10 µM (SRPK1; read-out: inhibition (10 μM)): 10.8%
inhibition at 10 µM (LATS1; read-out: % inhibition (range)): 0%
inhibition at 10 µM (LATS1; read-out: inhibition (10 μM)): 14.7%
inhibition at 10 µM (MAP2K5; read-out: % inhibition (range)): 0%
inhibition at 10 µM (MAP2K5; read-out: inhibition (10 μM)): 13.4%
inhibition at 10 µM (ZAK; read-out: % inhibition (range)): 35 to 50%
inhibition at 10 µM (ZAK; read-out: inhibition (10 μM)): 44.9%
inhibition at 10 µM (MAP2K7; read-out: % inhibition (range)): 0%
inhibition at 10 µM (MAP2K7; read-out: inhibition (10 μM)): 15.1%
% inhibition (range) (MARK1, MARK2; 10 μM): 0.0%
inhibition (10 μM) (MARK1, MARK2): 2.9%
